Patent US8906898B1, “Solid forms of ceftolozane” (Calixa Therapeutics, Inc., priority 2013, dated 2014)
Structures can show the parent of a compound that is named as a salt.

Tests used:
[1] = Stability of HPLC sample solution in refrigerated autosampler; format: physicochemical; details: 1 mg/mL in 50 mM sodium perchlorate monohydrate, pH 4.00; 4±2° C.
Method: (§1) Ceftolozane sulfate samples are prepared at a concentration of 1 mg/mL in diluent (50 mM sodium perchlorate monohydrate, pH 4.00). The system suitability standard (SST) is prepared at a concentration of 1 mg/mL of ceftolozane sulfate containing specified impurities in diluent (50 mM sodium perchlorate monohydrate, pH 4.00). Ceftolozane samples and SST are stored in a refrigerated autosampler tray at 4±2° C. and the samples are only stable for 5 hours at this condition.

[2] = format: physicochemical
Method: Thermo Gravimetric Analysis (TGA) experiments were performed on a TA Instruments Discovery Series TGA. The calibration for temperature was carried out using certified indium. Typically, 3-15 mg of a sample was flattened into sealed aluminum pans. Data was acquired for samples with and without a pinhole. For samples with a pinhole, once crimped and sealed, the auto-sampler punched the lid of the sample with its internal puncher right before analysis of the sample. Samples were heated at 20° C./min from 30° C. to 400° C. Dry nitrogen was purged into the system during the experiment at a rate of 50 ml/min. The software used to control the instrument was TRIOS Explorer Software v5.3.0.75. TRIOS software v2.40.1838 or v2.04.04563 was used for data analysis.
Thermogravimetric analysis (TGA) and differential scanning calorimetry (DSC) thermograms are shown in FIG. 3 and FIG. 4, respectively. […] The subsequent exotherm in the thermogram is indicative of decompostion that is consistent with the observation in the melting point experiment.

[3] = Gravimetric dynamic vapour sorption (moisture sorption/desorption, hygroscopicity); format: physicochemical; details: 25° C.
Method: Gravimetric dynamic vapor sorption data (FIG. 5) was obtained using a SMS DVS Intrinsic moisture sorption analyser, controlled by DVS Intrinsic Control software v1.0.0.30. The sample temperature was maintained at 25° C. by the instrument controls. The humidity was controlled by mixing streams of dry and wet nitrogen. The relative humidity was measured by a calibrated Rotronic probe, located near the sample. The weight change of the sample as a function of % RH was constantly monitored by the microbalance (accuracy ±0.005 mg). Approximately 40 mg of sample was placed in a tared mesh stainless basket under ambient conditions. Weight reference was established at the start of an experiment. Moisture sorption isotherm parameters were described as below: [table] The moisture sorption/desorption property of crystalline cefolozane sulfate form 2 is depicted in FIG. 5. A reversible hysteresis associated with around 23% w/w water between 0% and 90% relative humidity (RH) was observed. The DVS isotherm in FIG. 5 is consistent with the presence of two crystalline forms that can be interconverted as function of relative humidity. The presence of ceftolozane sulfate solid Form 1 and ceftolozane sulfate solid Form 2 in the sample tested to obtain the DVS isotherm in FIG. 5 was confirmed by a variable humidity XRPD (VH-XRPD) measurement, based on the XRPD diffraction angles disclosed for Form 1 and Form 2 of ceftolozane sulfate (as disclosed herein). Referring to DVS the isotherm plot in FIG. 5, the lower curve corresponds to ceftolozane sulfate in solid Form 2, and the upper curve is corresponds to ceftolozane sulfate in solid Form 1. The Y-axis of the DVS plot is change in mass. The X-axis of DVS plot refers to the percent relative humidity (RH) of the sample. Reference point 10 in FIG. 5 is the starting point of Form 2 in DVS experiment. The lower portion of the curve in FIG. 5 was obtained by measuring the change in mass of a ceftolozane sulfate sample in solid Form 2 while increasing relative humidity (RH) in the sample, starting at reference point 10 of the lower curve from reference point 10 (Form 2) and moving toward reference point 20 (Form 1). Based on the data collected, the ceftolozane sulfate in the sample converted from Form 2 to Form 1 when the sample was exposed to conditions between 50% RH (reference point 12) and 70% RH (reference point 15). Referring again to the lower curve in FIG. 5, ceftolozane sulfate in Form 1 is present in the sample from 70% RH to reference point 20, where the sample is ceftolozane sulfate is in crystalline Form 1. Referring to the upper curve in FIG. 5, from reference point 20 to reference point 30, the ceftolozane sulfate in the sample material remains as solid Form 1. From reference point 30 to around 20% RH (reference point 35 on the upper curve), the crystalline form of ceftolozane sulfate in the material transforms from Form 1 to Form 2. As the relative humidity of the sample was dropped below about 20% on the upper curve between reference point 30 and reference point 40 (0% RH), the ceftolozane sulfate became more amorphous, with some residual Form 2 remaining at reference point 40. […] Hygroscopicity of ceftolozane sulfate, Form 2 was assessed using the SMS DVS Intrinsic moisture sorption analyzer equipped with a calibrated Rotronic probe. […]

[4] = Melting point experiment (SRS Optimelt), thermal decomposition; format: physicochemical; details: scan from 100° C. to 400° C.; decomposed prior to melting
Method: Melting point experiment was performed for ceftolozane sulfate form 2 using the SRS Optimelt melting point apparatus. SRS-certified vanillin and phenacetin were used to verify the system performance. The temperature scan from 100° C. to 400° C. was performed for ceftolozane sulfate. The material decomposed prior to melting. The decomposition, as indicated by the distinct change in color, appeared to commence at about 170° C.

[5] = Water content by Karl Fischer volumetric titration with Stromboli oven; format: physicochemical; details: samples equilibrated at 130° C., mean of triplicate
Method: Water content of crystalline ceftolozane sulfate (prepared according to Example 2a as Form 1) was determined using a Mettler Toledo Karl Fischer volumetric titrator V30 that was connected to a Mettler Toledo Stromboli oven sample changer. AquaStar CombiTitrant 5 (EMD; Cat. No. 1.88005.1045; Lot No. 51096) was used as the titrant and the AquaStar Combi-Methanol (EMD; Cat. No 1.88009.1045; Lot No 53046) was used as the solvent. For data processing, the LabX software version 3.1.1.0 was employed. The Hydranal Water Standard for KF-Oven (Fluka; Cat. No. 34693; Lot No. SZBB010AV) that is expected to contain 5% water was weighed accurately in duplicate at or very close to 200 mg. The crystalline ceftolozane sulfate (15-18 mg) was weighed accurately in triplicate in separate 20 mL Stromboli sample vials. The vials were sealed with aluminum seals and rubber caps. A blank vial was prepared by sealing an empty 20-mL Stromboli vial with the aluminum seal and the rubber cap. The blank vial was used to determine the background moisture in air inside the vial. […] The KF titrator passed the accuracy test as the mean of the duplicate readings for the water standard was between the acceptance range of 4.80-5.20%. Water content results for crystalline ceftolozane sulfate derived from the triplicate weighings were recorded and the mean was reported. […]

[6] = Ceftolozane precipitation time as function of solution concentration (visual assessment); format: physicochemical; details: pH 6.9, 2 to 8° C.
Method: Sterile ceftolozane compositions suitable for combination with tazobactam to form a pharmaceutical composition are prepared as a lyophilized powder from the ceftolozane sulfate comprising solid Form 2 by compounding the drug substance with excipients into an aqueous solution, aseptically filtering the solution, lyophilizing the solution, then grinding, sieving and packaging the sterile lyophilized powder. The physical stability of the bulk solution at varying concentrations was examined and concentrations up to 150 mg ceftolozane free base/g solution were found suitable. All the registration batches were prepared using 150 mg/g ceftolozane concentration in the compounding solution and this concentration is proposed for commercial manufacturing. The resulting ceftolozane composition solubility was assessed in a concentration range proposed for manufacturing, in the presence of excipients intended for use in the ceftolozane formulation for use in the pharmaceutical composition. […] Samples were adjusted to pH 6.9, held at 2 to 8° C., and visually assessed for any precipitation.

[7] = Comparative ceftolozane solvent stability test (purity by HPLC over 6 days); format: physicochemical
From the text: This stability study was to evaluate stability and purity of ceftolozane sulfate in different solvent systems.
Sample 1 was a solvent system used to prepare crystalline ceftolozane sulfate from a mixture of isopropanol and water, as described in Example 2b (in the absence of ethanol). Sample 2 was solvent system used to obtain crystalline ceftolozane sulfate prepared according to the procedure of U.S. Pat. No. 7,129,232, wherein the crystals were precipitated from a mixture of ethanol and water.
Sample 1 and sample 2 were maintained for 6 days (as described in Example 2a, with continuous stirring). The purity of ceftolozane in the samples in each solvent system was measured by HPLC at day 0, day 3, and day 6.
as §1
Each sample is prepared in singlet and injected twice. Only impurities >LOD (0.008% Area) are integrated. The peak area percentage for each impurity >LOD is taken directly from the chromatogram. The mean % area of each peak is calculated and the absolute difference of any peak in the two replicates cannot be >0.030%. The purity and related substances are determined based on relative area % of each peak with respect to the total peak area of the sample. The total impurities are the sum of the individual impurities >LOD.

Cn1c(N)c(NC(=O)NCCN)c[n+]1CC1=C(C(=O)O)N2C(=O)[C@@H](NC(=O)/C(=N\OC(C)(C)C(=O)O)c3nsc(N)n3)[C@H]2SC1 [Ceftolozane sulfate, 5-amino-4-{[(2-aminoethyl)carbamoyl]amino}-2-{[(6R,7R)-7-({(2Z)-2-(5-amino-1,2,4-thiadiazol-3-yl)-2-[(1-carboxy-1-methylethoxy)imino]acetyl}amino)-2-carboxy-8-oxo-5-thia-1-azabicyclo[4.2.0]oct-2-en-3-yl]methyl}-1-methyl-1H-pyrazolium monosulfate]
time the sample solution is stable [1]: 5 h

Cn1c(N)c(NC(=O)NCCN)c[n+]1CC1=C(C(=O)O)N2C(=O)[C@@H](NC(=O)/C(=N\OC(C)(C)C(=O)O)c3nsc(N)n3)[C@H]2SC1 [ceftolozane sulfate Form 2]
temperature beyond which degradation likely occurs [2]: > 181 °C
hygroscopicity ([3]; RH 0 to 90%): hygroscopic
total uptake of water ([3]; at 90% relative humidity, RH 0 to 90%): 23%
reversible hysteresis, water ([3]; between 0% and 90% relative humidity): around 23 % w/w
relative humidity below which the solid became more amorphous ([3]; decreasing RH to 0%, some residual Form 2): below 20%
temperature at which decomposition commenced (change in color) [4]: about 170 °C

Cn1c(N)c(NC(=O)NCCN)c[n+]1CC1=C(C(=O)O)N2C(=O)[C@@H](NC(=O)/C(=N\OC(C)(C)C(=O)O)c3nsc(N)n3)[C@H]2SC1 [ceftolozane sulfate Form 1]
relative humidity down to which Form 1 transforms to Form 2 ([3]; decreasing RH, from reference point 30): around 20 % RH

Cn1c(N)c(NC(=O)NCCN)c[n+]1CC1=C(C(=O)O)N2C(=O)[C@@H](NC(=O)/C(=N\OC(C)(C)C(=O)O)c3nsc(N)n3)[C@H]2SC1.O=S(=O)([O-])O [Example 1, 7β-[(Z)-2-(5-amino-1,2,4-thiadiazol-3-yl)-2-(1-carboxy-1-methylethoxyimino)acetamido]-3-{3-amino-4-[3-(2-aminoethyl)ureido]-2-methyl-1-pyrazolio}methyl-3-cephem-4-carboxylic acid hydrogen sulfate]
water content by weight [5]: about 26.3%

Cn1c(N)c(NC(=O)NCCN)c[n+]1CC1=C(C(=O)[O-])N2C(=O)[C@@H](NC(=O)/C(=N\OC(C)(C)C(=O)O)c3nsc(N)n3)[C@H]2SC1 [Ceftolozane, (6R,7R)-3-[(5-amino-4-{[(2-aminoethyl)carbamoyl]amino}-1-methyl-1H-pyrazol-2-ium-2-yl)methyl]-7-({(2Z)-2-(5-amino-1,2,4-thiadiazol-3-yl)-2-[(1-carboxy-1-methylethoxy)imino]acetyl}amino)-8-oxo-5-thia-1-azabicyclo[4.2.0]oct-2-ene-2-carboxylate]
Time to Precipitate ([6]; ceftolozane sulfate 149 mg/g (free base 130 mg/g), with excipients): >24 hours^a
Time to Precipitate ([6]; ceftolozane sulfate 172 mg/g (free base 150 mg/g), with excipients): >48 h
Time to Precipitate ([6]; ceftolozane sulfate 178 mg/g (free base 156 mg/g), last observation at 24 hour): >24 hours^1)
Time to Precipitate ([6]; ceftolozane sulfate 189 mg/g (free base 165 mg/g), with excipients): <18 h
Time to Precipitate ([6]; ceftolozane sulfate 200 mg/g (free base 174 mg/g), with excipients): 2 h
purity of ceftolozane after 6-day stability test ([7]; aqueous ethanol solution, methods of U.S. Pat. No. 7,129,232): about 68%
purity of ceftolozane at start of 6-day stability test ([7]; aqueous ethanol solution, precipitation per U.S. Pat. No. 7,129,232): about 97%
purity of ceftolozane after 6-day stability test ([7]; process using isopropanol (Example 2a), liquid phase): about 82%
